The record followed here is patent US20060140858A1, “Drug pre-targeting by means of bi-specific antibodies and hapten constructs comprising a carrier peptide and the active agent(s)” (Immunomedics, Inc., priority 2002, published 2006).

One series is described as follows: in vivo. Conditions: female, NCr nude, mouse, total radioactivity, % ID/g. The arrangement: species or system nude mice. How it is done:
(§1) GW-39, a CEA-producing human colon cancer cell line (See, Goldenberg, D. M. and Hansen, H. […] Female NCr nude mice Charles River Laboratories, Inc., Fredrick Md. or Taconic, Germantown, N.Y.) approximately 6 weeks of age were implanted subcutaneously with 0.2 ml of this suspension. […] At the designated times after the peptide injection, animals were anesthetized, bled by cardiac puncture, and then euthanized prior to necropsy. Tissues were removed, weighed and counted by gamma scintillation using appropriate windows for each radionuclide along with standards prepared from the injected materials. When dual isotope counting was used, appropriate backscatter correction was made. GI tissues (stomach, small intestine and large intestine were weighed and counted with their contents. Data are expressed as the percent injected dose per gram tissue (% ID/g) and the ratio of the percentages in the tumor to the normal tissues (T/NT). All values presented in the tables and figures represent the mean and standard deviation of the calculated values with the number of animals used for each study provided therein.

The test system of series [1] is GW-39. In words: in vivo. Conditions: mouse. The arrangement: species or system nude mice. How it is done:
as §1

A short description of series [2]: Comparison of ^177Lu-IMP-241 and ^111In-IMP-241 pretargeting using hMN-14 × m679 F(ab′)2 bsMAb (24 h bsMAb clearance). The class given is in vivo, nude mice. Conditions: female, NCr nude, mouse, iv, total radioactivity, read-out: Percent Injected Dose Per Gram; for tissue uptake at 3 h: 3 hour after peptide; for tissue uptake at 24 h: 24 hour after peptide. How it is done: (§2) Female NCr nude mice Charles River Laboratories, Inc., Fredrick Md. or Taconic, Germantown, N.Y.) approximately 6 weeks of age were implanted subcutaneously with 0.2 ml of this suspension. Two to three weeks after implantation of tumors, animals were injected with the radiolabeled peptide alone, or for pretargeting, with the bsMAb followed 1 to 2 days later with the radiolabeled peptide. […] At the designated times after the peptide injection, animals were anesthetized, bled by cardiac puncture, and then euthanized prior to necropsy. Tissues were removed, weighed and counted by gamma scintillation using appropriate windows for each radionuclide along with standards prepared from the injected materials. When dual isotope counting was used, appropriate backscatter correction was made. GI tissues (stomach, small intestine and large intestine were weighed and counted with their contents. Data are expressed as the percent injected dose per gram tissue (% ID/g) and the ratio of the percentages in the tumor to the normal tissues (T/NT). All values presented in the tables and figures represent the mean and standard deviation of the calculated values with the number of animals used for each study provided therein.

The format of series [3] is in vitro ADME, mouse. From the text:
The peptide was monitored as described above by HPLC.

Series [4] has as its system GW-39. Also noted: species or system nude mice. Conditions: mouse, in vivo. How it is done: as §2
Series [5] concerns GW-39. In words: Comparison of ^177Lu-IMP-241 and ^111In-IMP-241 pretargeting using hMN-14 × m679 F(ab′)2 bsMAb (24 h bsMAb clearance). The class given is in vivo, nude mice. Conditions: listed as 111In-IMP-241. How it is done:
as §2

Where two headings read alike, the source gives them in different places. *1 amine or outer side, *2 acyl side, *3 side chain or, on linkers, in order; H or OH if unused. Where a SMILES comes first, the peptide text is derived from it. Side-chain parts run from the residue outwards. [ ]: non-standard residue; d: D form. The star is where a group is joined. DOTA = O=C(O)CN1CCN(CC(=O)O)CCN(CC(=O)*)CCN(CC(=O)O)CC1; NH(2-(imidazol-4-yl)ethyl) = c1ncc(CCN*)[nH]1; Suc = O=C(CCC(=O)[*:2])[*:1]

As to `NC(=O)[C@H](CCCCNC(=O)CNC(=O)CCC(=O)NCCc1cnc[nH]1)NC(=O)[C@@H](Cc1ccc(O)cc1)NC(=O)[C@H](CCCCNC(=O)CNC(=O)CCC(=O)NCCc1cnc[nH]1)NC(=O)[C@H](Cc1ccccc1)NC(=O)CN1CCN(CC(=O)O)CCN(CC(=O)O)CCN(CC(=O)O)CC1` [^177Lu-IMP-241, metal not drawn] ({DOTA}-FK([Gly-Suc-NH(2-(imidazol-4-yl)ethyl)])[dY]K([Gly-Suc-NH(2-(imidazol-4-yl)ethyl)])-NH2), the tissue uptake at 48 h in “in vivo” was 0.94 ± 0.2 %ID/g. Also, the “decrease in kidneys compared to the level seen at 24 h” value with GW-39 [1] is reported as about 45%. The tissue uptake at 3 h in series [2] (blood, Blood) is 1.48 ± 0.19 %ID/g; in series [2] (kidney, Kidney), 3.61 ± 0.43 %ID/g; in series [2] (liver, Liver) it was 0.46 ± 0.08 %ID/g; in series [2] (lungs, Lungs), 0.64 ± 0.12 %ID/g; in series [2] (spleen, Spleen), 0.36 ± 0.04 %ID/g; in series [2] (tumor, Tumor) it was 9.71 ± 2.49 %ID/g. Moreover, the tissue uptake at 24 h was 0.36 ± 0.05 %ID/g in series [2] (blood, Blood); 0.18 ± 0.03 %ID/g in series [2] (kidney, Kidney); 0.17 ± 0.04 %ID/g in series [2] (liver, Liver); 0.17 ± 0.02 %ID/g in series [2] (lungs, Lungs); 0.29 ± 0.07 %ID/g in series [2] (spleen, Spleen); 2.59 ± 0.3 %ID/g in series [2] (tumor, Tumor).
For `NC(=O)[C@H](CCCCNC(=O)CNC(=O)CCC(=O)NCCc1cnc[nH]1)NC(=O)[C@@H](Cc1ccc(O)cc1)NC(=O)[C@H](CCCCNC(=O)CNC(=O)CCC(=O)NCCc1cnc[nH]1)NC(=O)[C@H](Cc1ccccc1)NC(=O)CN1CCN(CC(=O)O)CCN(CC(=O)O)CCN(CC(=O)O)CC1` [IMP 241, DOTA-Phe-Lys(HSG)-D-Tys-Lys(HSG)-NH2] ({DOTA}-FK([Gly-Suc-NH(2-(imidazol-4-yl)ethyl)])[dY]K([Gly-Suc-NH(2-(imidazol-4-yl)ethyl)])-NH2), in series [3], the “decomposed in mouse serum” value was about 5%. The “increase of tumor accretion by pretargeting compared to the peptide alone” value in the series with GW-39 [4] is about 100 fold. Further, the “Percent Injected Dose Per Gram” value in the series on GW-39 [5] (Blood, 3 hour after peptide) worked out at 1.87 ± 0.97 % ID/g; in the series on GW-39 [5] (Kidney, 3 hour after peptide), 3.00 ± 0.87 % ID/g; with GW-39 [5] (Liver, 3 hour after peptide), 0.57 ± 0.24 % ID/g; in the series on GW-39 [5] (Lungs, 3 hour after peptide), 0.81 ± 0.33 % ID/g; in the series on GW-39 [5] (Lungs, 24 hour after peptide), 0.24 ± 0.07 % ID/g; in the series on GW-39 [5] (Tumor, 3 hour after peptide), 8.76 ± 2.31 % ID/g. Moreover, in the series with GW-39 [5] (Tumor, 24 hour after peptide), the “Percent Injected Dose Per Gram” value turned out to be 2.54 ± 1.04 % ID/g.
